Legend:
[1] = PK parameters in rat (IV and PO); format: in vivo; conditions: for PK parameters (rat): F: 1 mg/kg IV and 3 mg/kg PO; for clearance / half-life: Sprague Dawley, plasma, IV arm, 1 mg/kg; for clearance: read-out: PK parameters (rat): Cl; for half-life: read-out: PK parameters (rat): t1/2
Experimental: Swiss Albino male mice or Sprague Dawley rats (TCGLS, India) were kept under a 12/12 h light/dark cycle, 22±2° C. temp, 50±20% RH with free access to food and water ad libitum. Mice were selected randomly/based on body weight/age and fasted for 4 h before dosing and until 2 h after dosing. Three mice were used per route of administration. For IV determination (1 mg/kg, dose volume 5 ml/kg) the dose was administered by injection into the lateral tail vein (rats are anaesthetized using 3% v/v isoflurane: oxygen mixture). For PO determination (3 mg/kg, dose volume 10 ml/kg) the dose was administered by oral gavage in conscious animals.
(§1) Blood samples were taken (mice 50 μL, rat 100 μL) at regular timepoints from the saphenous vein (conscious restrained animals) and collected into heparinized capillary tubes and transferred into 0.5 mL microcentrifuge tubes. Samples were processed by centrifugation at 1640 g for 10 min at +4° C. within 30 min of collection and stored at −20° C. until bioanalysis. All samples were mixed with ice-cold acetonitrile containing an internal standard, centrifuged at 4000 rpm for 15 min at 15° C. Supernatant was then half diluted in water and analysed by LCMS/MS analysis to determine analyte peak area/IS peak area (the ratio). Concentration (plasma) of the compounds of the invention was determined by reference to a calibration curve. Pharmacokinetic parameters (Cmax, Tmax, AUC, t1/2, CL, Vd, BA) were calculated using WinNonLin, using non-compartmental analysis (Phoenix, Version 6.3). The pharmacokinetic parameters for compounds shown in Table 2 support that compounds of the invention have pharmacokinetic properties associated with treatment of malaria via the oral route and that compounds have substantially longer half-lives than the reference compound.

[2] = Hepatocyte intrinsic clearance, cryopreserved human hepatocytes; format: in vitro ADME; conditions: cryopreserved human hepatocytes in suspension (pooled), 60 min
Experimental: The compounds of the invention (3 μM) were incubated in suspension with cryopreserved human (rat or mouse) hepatocytes pooled from multiple donors (>10) and samples taken at 6 time points over the course of a 60 min experiment and analysed by LC MS/MS. Williams E media supplemented with 2 mM L-glutamine and 25 mM HEPES and test compound (final substrate concentration 3 μM; final DMSO concentration 0.25%) were pre-incubated at 37° C. prior to the addition of a suspension of cryopreserved hepatocytes (final cell density 0.5×10^6 viable cells/mL in Williams E media supplemented with 2 mM L glutamine and 25 mM HEPES) to initiate the reaction. The final incubation volume is 500 μL. The reactions are stopped by transferring aliquots of incubate into acetonitrile at the appropriate time points, in a 1:2 ratio. The termination plates are centrifuged at 3,000 rpm for 20 min at 4° C. to precipitate the protein. Following protein precipitation, the sample supernatants were combined in cassettes of up to 4 compounds, internal standard was added and analysed by LC MS/MS. From a plot of ln peak area ratio (compound peak area/internal standard peak area) against time, the gradient of the line was determined. Subsequently, half-life (t½) and intrinsic clearance (CLint) were calculated using the equations below: Elimination rate constant (k)=(−gradient) Half-life (t½) (min)=0.693/k Intrinsic clearance (i.e. CLint) (μL/min/million cells)=V×0.693/t1/2
where V=Incubation volume (μL)/Number of cells
Verapamil and umbelliferone were included in the assay as controls and if the values for these compounds are not within the specified limits the results were rejected and the experiment repeated.

[3] = Microsomal intrinsic clearance, human liver microsomes; format: in vitro ADME; conditions: human liver microsomes (pooled), pH 7.4, 45 min, NADPH
Experimental: (§2) The compounds of the invention (1 μM) were incubated in suspension with human (rat or mouse) liver microsomes pooled from multiple donors (>10) and samples taken at 5 time points over the course of a 45 min experiment and analysed by LC MS/MS. Microsomes (final protein concentration 0.5 mg/mL), 0.1 M phosphate buffer pH 7.4 and test compound (final substrate concentration 1 μM; final DMSO concentration 0.25%) were pre-incubated at 37° C. prior to the addition of NADPH (final concentration 1 mM) to initiate the reaction. A minus cofactor control incubation was included for each compound tested where 0.1 M phosphate buffer pH 7.4 is added instead of NADPH (minus NADPH). All incubations were performed in duplicate for each test compound and the results averaged. Each compound is incubated for 0, 5, 15, 30 and 45 min. The control (minus NADPH) was incubated for 45 min only. The reactions were stopped by transferring incubate into acetonitrile at the appropriate time points, in a 1:3 ratio.
(§3) The termination plates were centrifuged at 3,000 rpm for 20 min at 4° C. to precipitate the protein. Following protein precipitation, the sample supernatants were combined in cassettes of up to 4 compounds, internal standard added and samples analysed by LC-MS/MS. From a plot of ln peak area ratio (compound peak area/internal standard peak area) against time, the gradient of the line is determined. Subsequently, half-life (t½) and intrinsic clearance (CLint) are calculated using the equations below: Elimination rate constant (k)=(−gradient) Half-life (t1/2)(min)=0.693/k Intrinsic clearance (i.e. CLint)(μL/min/mg protein)=V×0.693/t1/2 where V=Incubation volume (μL)/Microsomal protein (mg)
(§4) Verapamil and dextromethorphan were included in the assay as controls and if the values for these compounds were not within the specified limits the results were rejected and the experiment repeated.

[4] = PK parameters in mouse (IV and PO); format: in vivo; conditions: for PK parameters (mouse): F: 10 mg/kg IV and 10 mg/kg PO; for clearance / half-life: male, Swiss Albino, plasma, IV arm, 10 mg/kg; for clearance: read-out: PK parameters (mouse): Cl; for half-life: read-out: PK parameters (mouse): t1/2
Experimental: Swiss Albino male mice or Sprague Dawley rats (TCGLS, India) were kept under a 12/12 h light/dark cycle, 22±2° C. temp, 50±20% RH with free access to food and water ad libitum. Mice were selected randomly/based on body weight/age and fasted for 4 h before dosing and until 2 h after dosing. Three mice were used per route of administration. […]
as §1

[5] = Microsomal intrinsic clearance, rat liver microsomes; format: in vitro ADME; conditions: rat liver microsomes (pooled), pH 7.4, 45 min, NADPH
Experimental: as §2, §3, §4

[6] = Microsomal intrinsic clearance, mouse liver microsomes; format: in vitro ADME; conditions: mouse liver microsomes (pooled), pH 7.4, 45 min, NADPH
Experimental: as §2, §3, §4

Row | SMILES | PK parameters (rat): F [1] | clearance [1] [mL/min/kg] | half-life [1] [h] | hepatocyte CLint at 3 μM [2] [µL/min/1e6 cells] | microsomal CLint at 1 μM [3] [µL/min/mg] | PK parameters (mouse): F [4] | clearance [4] [mL/min/kg] | half-life [4] [h] | microsomal CLint at 1 μM [5] [µL/min/mg] | microsomal CLint at 1 μM [6] [µL/min/mg]
1 | N#Cc1cc(NC(=O)[C@H]2c3ccccc3C(=O)N(CC(F)(F)F)[C@@H]2c2ccc(OC3CC3)nc2)ccc1F (single isomer, unassigned) [(1a)] | F = 107% | 1 | 26 | < 3 | < 3 | F = 79% | 2.17 | 17 | < 10 | < 10
2 | N#Cc1cc(NC(=O)[C@H]2c3ccccc3C(=O)N(CC(F)(F)F)[C@@H]2c2cnc(C(F)(F)F)nc2)ccc1F [(9a), (3S,4S)—N-(3-cyano-4-fluorophenyl)-1-oxo-2-(2,2,2-trifluoroethyl)-3-(2-(trifluoromethyl)pyrimidin-5-yl)-1,2,3,4-tetrahydroisoquinoline-4-carboxamide] | F = 65% | 1.33 | 22 | < 3 | < 3 | F = 92% | 3.17 | 14 | < 10 | 10.1
3 | N#Cc1cc(NC(=O)[C@H]2c3ccccc3C(=O)N(CC(F)(F)F)[C@@H]2c2cccnc2)ccc1F [(+) SJ-733, 4-Isoquinolinecarboxamide, N-(3-cyano-4-fluorophenyl)-1,2,3,4-tetrahydro-1-oxo-3-(3-pyridinyl)-2-(2,2,2-trifluoroethyl)-, (3S,4S)-, reference compound] | F = 75% | 13.3 | 7.7 | 11.4 | 140 | F = 66% | 70 | 1.1 | < 6 | 37

Reference: patent US12509439B2, “Anti-malarial agents” (UNIVERSITY OF KENTUCKY RESEARCH FOUNDATION, priority 2020, dated 2025)
